Molecules are shown by their SMILES. Where two headings read alike, the source gives them in different places.

Series [1] deals with lentiviral particles exhibiting S protein of SARS-CoV-2. Put plainly: microbe, parasite or virus in culture. The class given is cell-based. The conditions noted are these: for inhibition at 25 µM: Severe acute respiratory syndrome coronavirus 2, 48 h, read-out: % Neutralization at 25 µM.
Series [2] can be described thus: in vitro. Particulars: African green monkey.
Series [3] concerns SARS-CoV-2 Omicron lineage B.1.1.529, hCoV-19/Russia/Moscow171619-031221/2021. As to the kind of experiment: microbe, parasite or virus in culture. The class given is cell-based. The conditions noted are these: Severe acute respiratory syndrome coronavirus 2, Vero C1008, 96 h.
Series [4] in a line: Cytotoxicity of compounds on HEK293T cells (MTT). It is filed as cell-based. The conditions noted are these: human.
Series [5] deals with SARS-CoV-2 Delta lineage B.1.617.2, hCoV-19/Russia/PSK-2804/2021. Put plainly: microbe, parasite or virus in culture. The class given is cell-based. The conditions noted are these: for IC50: Severe acute respiratory syndrome coronavirus 2, Vero C1008, 96 h.
Series [6] relates to SARS-CoV-2 Wuhan lineage B, hCoV-19/Australia/VIC01/2020 (EPI_ISL_406844). Put plainly: microbe, parasite or virus in culture. Particulars: for IC50: Severe acute respiratory syndrome coronavirus 2, Vero C1008, 96 h. It is filed as cell-based.
Series [7] concerns main viral protease 3CLPro. Particulars: cited from earlier work; for active against 3CLPro at a dose of: range for the four flavonoids.
Series [8] has as its target main protease (3CLpro) of SARS-CoV-2 (Severe acute respiratory syndrome coronavirus 2, UniProt P0DTD1). Put plainly: biochemical.
The mark [9] stands for this setting: Severe acute respiratory syndrome coronavirus 2.
[10] abbreviates: HEK293T cells, 72 h, MTT, read-out: CC50.

Broadly, the melting point is the temperature of the solid-liquid transition. As usually defined, the IC50 is the concentration that inhibits the measured activity by half. For the compound `CCC1=C(O)C[C@H]2Oc3c(C(C)=O)c(O)c(C)c(O)c3[C@@]2(C)C1=O` [Compound 12, (2R,7R)-10-acetyl-4-ethyl-5,11,13-trihydroxy-2,12-dimethyl-8-oxatricyclo[7.4.0.0^2,7]trideca-1(13),4,9,11-tetraen-3-one], the melting point lay within 58 to 62 °C. Moreover, half-maximal inhibition in [1] (setting [9]) (IC50) was put at 28 ± 3.7 µM. Further, the inhibition at 25 µM in series [1] turned out to be 53%. The compound also had a CC50 at 4 days in series [2] of 262 ± 32 µM. Further, the concentration for half-maximal inhibition (IC50) in [3] came out at 60 ± 12.1 µM. Further, in [4], the CC50 at 72 h is more than 1000 µM. The compound also came in with an IC50 in series [5] of 85 ± 11.2 µM. Besides, half-maximal inhibition in [6] (IC50) was put at 91 ± 7.1 µM.
Turning to `O=c1c(O)c(-c2cc(O)c(O)c(O)c2)oc2cc(O)cc(O)c12` [Myricetin], the “active against 3CLPro at a dose of” value in series [7] is 1.2 to 5.8 µM.
With `CC(=O)C1=C(O)C=C2Oc3c(C(C)=O)c(O)c(C)c(O)c3[C@@]2(C)C1=O` [Compound 1, (R)-(+)-Usnic acid], the “activity against the pseudovirus system (in words)” value in series [1] is recorded as “is not an entry inhibitor”. Also, the inhibition at 25 µM in series [1] was determined as 12%. In series [2], this compound had a CC50 of 147 ± 22.1 µM. The IC50 in series [3] was 3.7 ± 0.8 µM; in [5], 20.9 ± 3.4 µM; in [6] it was 10.9 ± 2.2 µM. The CC50 at 72 h in series [4] (setting [10]) is more than 1000 µM. Besides, the “inhibition of the main protease (in words)” value in series [8] is on record as “not an inhibitor”.
As for `O=c1c(O)c(-c2ccc(O)c(O)c2)oc2cc(O)c(O)c(O)c12` [Quercetagetin], the “active against 3CLPro at a dose of” value in series [7] was 1.2 to 5.8 µM.
For the compound `CC(=O)c1c(O)c(C)c(O)c2c1OC1=CC(=O)c3c(C)noc3[C@@]12C` [Compound 3], the IC50 was determined as 32 ± 5.1 µM in series [1] (setting [9]), 3.5 ± 1.1 µM in series [3], 9.1 ± 1.8 µM in series [5] and 9.2 ± 2.4 µM in series [6]. Further, the inhibition at 25 µM in series [1] turned out to be 65%. This compound also displayed a CC50 at 4 days in series [2] of 15.5 ± 2.8 µM. Also, the CC50 at 72 h in series [4] was determined as 150 ± 18.5 µM.
Take `O=C1c2c(O)cc(O)cc2O[C@H](c2cc(O)c(O)c(O)c2)[C@H]1O` [Dihydromyricetin]: in [7], the “active against 3CLPro at a dose of” value was 1.2 to 5.8 µM.
As for `CC(=O)C1=C(O)C=C2Oc3c(C(C)=O)c(O)c(C)c(O)c3[C@@]2(C)[C@@H]1O` [Compound 6], the inhibition at 25 µM in [1] turned out to be 40%. In series [2], this compound gave a CC50 of 99 ± 12.1 µM. For the same compound, the CC50 at 72 h in series [4] (setting [10]) came out at 168 ± 21.2 µM. Besides, the IC50 in series [8] came to 112 µM; in series [6] it was 65.3 ± 7.4 µM.
`CC(=O)C1=C(O)C=C2Oc3c4c(c(C)c(O)c3[C@@]2(C)C1=O)OCC4=O` [Compound 8]: in series [1], the “activity against the pseudovirus system (in words)” value is “no activity”. The inhibition at 25 µM in [1] came to 0%. Further, in [2], the CC50 at 4 days was determined as 176 ± 19.9 µM. For the same compound, the IC50 in series [3] is 47 ± 6.5 µM; in series [8], approximately 200 µM; in [5], 95 ± 8.7 µM; in [6], 44.3 ± 5.2 µM. This compound registered a CC50 at 72 h in series [4] of 358 ± 31.1 µM. Further, in [5], the “antiviral activity (in words)” value is recorded as “almost no activity”.
With `CC(=O)c1c(O)c(C)c(O)c2c1OC1=Cc3onc(C)c3C(=O)[C@@]12C` [Compound 2], in series [1], the “In Vitro (Pseudotype-Based Assay)” value was “yes” and the inhibition at 25 µM was found to be 55%. The same compound returned an IC50 in [1] (setting [9]) of 30 ± 2.9 µM. In series [2], this compound gave a CC50 at 4 days of 252 ± 31 µM. Besides, the CC50 at 72 h in [4] is more than 1000 µM. Besides, in [6], the “antiviral activity (in words)” value is recorded as “did not exhibit antiviral activity at all”.
Compound `CC(=O)c1c(O)c(C)c(O)c2c1O[C@@H]1CC/C(=C(/C)O)C(=O)[C@]21C` [Compound 13, (2R,4E,7R)-10-acetyl-11,13-dihydroxy-4-(1-hydroxyethylidene)-2,12-dimethyl-8-oxatricyclo [7.4.0.0^2,7] trideca-1(13),9,11-trien-3-one] displayed a melting point of 100 to 103 °C. Moreover, in series [1], the 50% inhibitory concentration (IC50) came to 5.28 ± 0.8 µM and the inhibition at 25 µM was 95%. The same compound came in with a half-maximal inhibitory concentration (IC50) in [1] (setting [9]) of 5.3 µM. This compound also returned a CC50 at 4 days in series [2] of 72.7 ± 14.6 µM. In [3], this compound yielded a 50% inhibitory concentration (IC50) of 6.6 ± 1.9 µM. The compound also gave a CC50 at 72 h in [4] of 151 ± 14.9 µM. The IC50 in series [5] came out at 13.5 ± 2.1 µM. In [6], this compound returned a 50% inhibitory concentration (IC50) of 6.7 ± 1.4 µM.
Take `CC(=O)C1=C(O)C[C@H]2Oc3c(C(C)=O)c(O)c(C)c(O)c3[C@@]2(C)C1=O` [Compound 11, (2R,7R)-4,10-diacetyl-5,11,13-trihydroxy-2,12-dimethyl-8-oxatricyclo [7.4.0.0^2,7]trideca-1(9),4,10,12-tetraen-3-one]: the IC50 in series [1] (setting [9]) worked out at 22 ± 3.2 µM; in series [6] it was 21 ± 3.5 µM. For the same compound, the inhibition at 25 µM in series [1] stood at 78%. Moreover, in [2], the CC50 at 4 days came out at 84.9 ± 12.1 µM. For the same compound, the CC50 at 72 h in series [4] was 469 ± 24.2 µM.
With `O=c1cc(-c2ccc(O)cc2)oc2cc(O)c(O)c(O)c12` [Scutellarein], the “active against 3CLPro at a dose of” value in [7] was 1.2 to 5.8 µM.
The compound `CC(=O)C1=C(O)C=C2Oc3c(C(=O)CSC(C)C(=O)O)c(O)c(C)c(O)c3[C@@]2(C)C1=O` (mixture of isomers) [Compound 5b, (2S)-2-({2-[(1R)-12-acetyl-3,5,11-trihydroxy-1,4-dimethyl-13-oxo-8-oxatricyclo[7.4.0.0^2,7]trideca-2(7),3,5,9,11-pentaen-6-yl]-2-oxoethyl}sulfanyl)propanoic acid and (2R)-2-({2-[(1R)-12-acetyl-3,5,11-trihydroxy-1,4-dimethyl-13-oxo-8-oxatricyclo [7.4.0.0^2,7]trideca-2(7),3,5,9,11-pentaen-6-yl]-2-oxoethyl}sulfanyl)propanoic acid (1:1)] yielded a melting point of 91 to 95 °C. Also, the inhibition at 25 µM in series [1] came to 41%. In series [2], the CC50 at 4 days was 176 ± 22.6 µM. Further, the CC50 at 72 h in series [4] was more than 1000 µM. For the same compound, in series [6], the “antiviral activity (in words)” value is “low activity” and the midpoint of inhibition, the IC50, lay at 76.5 ± 8.2 µM.
Consider `COc1ccc(-c2cc(=O)c3c(O)c(O)c(O)cc3o2)cc1` [4′-O-methylscutellarein], for which the “activity against the main protease (in words)” value in [7] is “submicromolar”.
As to `CC(=O)c1c(O)c(C)c(O)c2c1OC1=CC(=O)/C(=C(/C)N)C(=O)[C@@]12C` [Compound 7], in [1], the inhibition at 25 µM was found to be 12%. Moreover, the CC50 at 4 days in series [2] is 528 ± 16 µM. In series [4], this compound showed a CC50 at 72 h of 850 ± 22.6 µM. Besides, the half-inhibitory concentration (IC50) in [8] was approximately 200 µM. In series [6], the “antiviral activity (in words)” value is listed as “has no antiviral activity at all”.
Compound `CC(=O)C1=C(O)C=C2Oc3c(C(=O)CO)c(O)c(C)c(O)c3[C@@]2(C)C1=O` [Compound 10, (2R)-4-acetyl-5,11,13-trihydroxy-10-(2-hydroxyacetyl)-2,12-dimethyl-8-oxatricyclo[7.4.0.0^2,7]trideca-1(9),4,6,10,12-pentaen-3-one] returned a melting point of 107 to 110 °C. For the same compound, the inhibition at 25 µM in [1] is 45%. The CC50 at 4 days in [2] was 306 ± 28.6 µM. For the same compound, in series [3], the IC50 was 17.5 ± 3.8 µM. This compound also came in with a CC50 at 72 h in series [4] of 750 ± 36.6 µM. In [8], the IC50 was approximately 200 µM. In [5], the IC50 was determined as 9.7 ± 1.4 µM. Also, the midpoint of inhibition in series [6], the IC50, lay at 25.3 ± 2.1 µM.
In the case of `CCC(CC)COC(=O)[C@H](C)N[P@](=O)(OC[C@H]1O[C@@](C#N)(c2ccc3c(N)ncnn23)[C@H](O)[C@@H]1O)Oc1ccccc1` [Remdesivir, reference compound], the CC50 in series [2] was 711 ± 21.2 µM. For the same compound, the 50% inhibitory concentration (IC50) came out at 2 ± 0.13 µM in series [3], 2.1 ± 0.16 µM in series [5] and 3.8 ± 0.42 µM in [6].
As for `CC(=O)C1=C(O)C=C2Oc3c(C(=O)CSCCC(=O)O)c(O)c(C)c(O)c3[C@@]2(C)C1=O` [Compound 5a], in [1], the “activity against the pseudovirus system (in words)” value is reported as “no activity” and the inhibition at 25 µM is 0%. This compound registered a CC50 at 4 days in series [2] of 177 ± 18.2 µM. Also, the CC50 at 72 h in [4] was more than 1000 µM. Also, the “antiviral activity (in words)” value in series [6] was “no antiviral activity at all”.
In the case of `CCOC(=O)c1c(CSc2ccccc2)n(C)c2cc(Br)c(O)c(CN(C)C)c12` [Arbidol, reference compound], in [1] (setting [9]), the IC50 amounted to 12.6 ± 4.1 µM. Also, in [1], the inhibition at 25 µM came out at 58%. In series [4] (setting [10]), the CC50 at 72 h was 19.8 ± 4.6 µM.
Compound `CC(=O)c1c(O)c(C)c(O)c2c1O[C@@H]1Cc3onc(C)c3C(=O)[C@]21C` [Compound 14, (1R,9R)-6-acetyl-3,5-dihydroxy-1,4,14-trimethyl-8,12-dioxa-13-azatetracyclo[7.7.0.0^2,7.0^11,^1⁵]hexadeca-2(7),3,5,11(15),13-pentaen-16-one] came in with a melting point of 152 to 156 °C. Further, the inhibition at 25 µM in series [1] was found to be 15%. The CC50 at 4 days in series [2] worked out at 296 ± 11.9 µM. Besides, in series [4], the CC50 at 72 h is more than 1000 µM. Further, in series [6], the “antiviral activity (in words)” value was “does not exhibit antiviral properties”.

The values above are taken from publication PMC9611092 (Viruses, 2022).
